Measurements from patent US7662778B2, “Histone deacetylase inhibitor and process for producing the same” (Riken, priority 2003, dated 2010).
pEC50, pIC50: −log10 of the molar value. Where two headings read alike, the source gives them in different places. Where a SMILES comes first, the peptide text is derived from it. [ ]: non-standard residue; d: D form. Phe(4-NH2) = Nc1ccc(C[C@H](N)C(=O)O)cc1

Legend:
[1] = test system: human wild-type p21 promoter; assay: p21 promoter-inducing activity (luciferase) in MFLL-9 cells; assay type: cell-based; conditions: Table 1; MFLL-9 cells, 18 hours; concentration corresponding to 50% of the maximum active value for TSA
Experimental: The HDAC inhibitory activity in vivo was measured using p21 promoter-inducing activity as an index, as shown below. The MFLL-9 cells employed for the experiments stably maintained fusion genes of human wild-type p21 promoter and luciferase (Dr. B. Vogelstaein). Using phenol red-free DMEM medium comprising 10% FBS, cultivation was carried out in a steam-saturated incubator at 37° C. with 5% carbon dioxide. The MFLL-9 cells were plated at a density of 85,000 cells/well on a 96-well microtiter plate, each in 99 μl of the above-mentioned medium. These were then cultivated for six hours. One μl of test compound solution was added to each well, which was then cultured for another 18 hours.
The intensity of luminescence caused by the product of the enzyme reaction for intracellular luciferase expression was measured using Luc Lite (Packard BioScience Company).
HDAC inhibitory activity in an in vivo system was measured using p21 promoter induction as index. The experimental method followed that of Example 11.

tubulin deacetylase = assay: Tubulin and histone acetylation level in HeLa cells by western blotting; assay type: cell-based, human; conditions: six hours, anti-acetylated lysine antibody, FIG. 4
Experimental: Tubulin and histone acetylation levels were measured by: (a) reacting a test compound with HeLa cells; and (b) confirming the tubulin and histone acetylation level by western blotting using anti-acetylated lysine antibodies. Specifically, human uterine cancer cells (HeLa) were cultured in a DMEM medium supplemented with 10% FBS at 37° C. in the presence of 5% carbon dioxide in a steam-saturated incubator. Two ml of the cells at a density of 15,000 cells/ml were plated onto a 6-well plate and cultured for 18 hours. Test compound solution was added to each culture and successively cultured for another six hours. The cells were washed with PBS, suspended in a lysis buffer (50 mM Tris-HCl (pH7.5), 120 mM NaCl, 5 mM EDTA, 0.5% Nonidet P-40), and then sonicated. The supernatant was collected by centrifugation, mixed with SDS bufer, and left at 100° C. for five minutes. The resulting sample was subjected to electroplioresis on a 15% SDS gel and transferred to a membrane film. This was treated with primary antibody “AKL5C1” (Japan Energy), and secondary antibody “anti-mouse” (LIFE SCIENCE), and then acetylation bands were detected by ECL (amersham pharmacia biotech) (FIG. 4).

mouse HDAC6 = biological target: T1, mouse HDAC6 (Mus musculus, UniProt Q9Z2V5); assay: HDAC inhibitory activity in vitro (coumarin-labeled acetylated histone peptide), HDAC6; assay type: biochemical; conditions: for IC50: Table 1, 37° C., 30 minutes, read-out: IC50 (μM) HDAC6
T1 construct: HA; made in house; host or cells: 293T cells, transient transfection; anti-HA immunoprecipitation and HA peptide elution
T1 sequence (Q9Z2V5 1-1149): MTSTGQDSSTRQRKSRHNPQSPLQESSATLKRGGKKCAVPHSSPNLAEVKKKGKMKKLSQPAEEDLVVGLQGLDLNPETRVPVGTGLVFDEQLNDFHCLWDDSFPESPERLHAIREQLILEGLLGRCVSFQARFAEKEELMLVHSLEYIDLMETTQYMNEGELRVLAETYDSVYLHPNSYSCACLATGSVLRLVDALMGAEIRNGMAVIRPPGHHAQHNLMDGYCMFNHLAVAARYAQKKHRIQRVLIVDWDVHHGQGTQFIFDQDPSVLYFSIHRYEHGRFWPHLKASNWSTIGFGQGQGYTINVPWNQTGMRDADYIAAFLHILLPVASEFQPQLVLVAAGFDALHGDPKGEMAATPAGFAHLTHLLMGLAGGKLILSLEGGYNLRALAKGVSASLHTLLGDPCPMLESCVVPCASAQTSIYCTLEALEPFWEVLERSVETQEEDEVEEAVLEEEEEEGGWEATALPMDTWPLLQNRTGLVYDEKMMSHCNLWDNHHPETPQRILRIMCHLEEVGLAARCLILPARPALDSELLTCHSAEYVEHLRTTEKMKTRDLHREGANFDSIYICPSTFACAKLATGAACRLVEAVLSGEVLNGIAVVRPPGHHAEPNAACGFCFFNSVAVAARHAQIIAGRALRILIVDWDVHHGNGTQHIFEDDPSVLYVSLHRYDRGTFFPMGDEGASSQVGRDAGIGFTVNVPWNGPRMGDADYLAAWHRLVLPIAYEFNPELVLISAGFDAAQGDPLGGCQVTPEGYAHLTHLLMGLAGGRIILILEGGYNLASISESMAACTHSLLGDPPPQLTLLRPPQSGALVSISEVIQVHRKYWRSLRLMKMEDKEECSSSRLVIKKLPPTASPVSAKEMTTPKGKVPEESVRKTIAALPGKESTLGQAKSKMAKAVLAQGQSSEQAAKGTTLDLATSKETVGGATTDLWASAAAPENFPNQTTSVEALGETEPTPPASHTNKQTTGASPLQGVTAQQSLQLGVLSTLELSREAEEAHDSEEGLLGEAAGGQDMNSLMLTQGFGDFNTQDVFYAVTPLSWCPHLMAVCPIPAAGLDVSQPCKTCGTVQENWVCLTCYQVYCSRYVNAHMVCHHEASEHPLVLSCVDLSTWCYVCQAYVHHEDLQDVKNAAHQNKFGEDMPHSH

[2] = test system: normal human lung cells (TIG-3); conditions: for pIC50: 48 h; for IC50: read-out: IC50 (nM) TIG-3, 48 hours, XTT
[3] = test system: human uterine cancer cells (HeLa); assay: Cytotoxicity test (XTT), HeLa; assay type: cell-based; conditions: 48 hours
human HDAC4 = biological target: T2, human HDAC4 (Homo sapiens, UniProt P56524); assay: HDAC inhibitory activity in vitro (coumarin-labeled acetylated histone peptide), HDAC4; assay type: biochemical
T2 construct: FLAG; made in house; host or cells: 293T cells, transient transfection; anti-FLAG immunoprecipitation and FLAG peptide elution

human HDAC1 = biological target: T3, human HDAC1 (Homo sapiens, UniProt Q13547); assay: HDAC inhibitory activity in vitro (coumarin-labeled acetylated histone peptide), HDAC1; assay type: biochemical; conditions: Table 1; 37° C., 30 minutes; read-out: IC50 (μM) HDAC1
T3 construct: FLAG; made in house; host or cells: 293T cells, transient transfection; anti-FLAG immunoprecipitation and FLAG peptide elution

[4] = amide bond, 12-membered ring, DMF

T2 sequence (P56524 whole entry): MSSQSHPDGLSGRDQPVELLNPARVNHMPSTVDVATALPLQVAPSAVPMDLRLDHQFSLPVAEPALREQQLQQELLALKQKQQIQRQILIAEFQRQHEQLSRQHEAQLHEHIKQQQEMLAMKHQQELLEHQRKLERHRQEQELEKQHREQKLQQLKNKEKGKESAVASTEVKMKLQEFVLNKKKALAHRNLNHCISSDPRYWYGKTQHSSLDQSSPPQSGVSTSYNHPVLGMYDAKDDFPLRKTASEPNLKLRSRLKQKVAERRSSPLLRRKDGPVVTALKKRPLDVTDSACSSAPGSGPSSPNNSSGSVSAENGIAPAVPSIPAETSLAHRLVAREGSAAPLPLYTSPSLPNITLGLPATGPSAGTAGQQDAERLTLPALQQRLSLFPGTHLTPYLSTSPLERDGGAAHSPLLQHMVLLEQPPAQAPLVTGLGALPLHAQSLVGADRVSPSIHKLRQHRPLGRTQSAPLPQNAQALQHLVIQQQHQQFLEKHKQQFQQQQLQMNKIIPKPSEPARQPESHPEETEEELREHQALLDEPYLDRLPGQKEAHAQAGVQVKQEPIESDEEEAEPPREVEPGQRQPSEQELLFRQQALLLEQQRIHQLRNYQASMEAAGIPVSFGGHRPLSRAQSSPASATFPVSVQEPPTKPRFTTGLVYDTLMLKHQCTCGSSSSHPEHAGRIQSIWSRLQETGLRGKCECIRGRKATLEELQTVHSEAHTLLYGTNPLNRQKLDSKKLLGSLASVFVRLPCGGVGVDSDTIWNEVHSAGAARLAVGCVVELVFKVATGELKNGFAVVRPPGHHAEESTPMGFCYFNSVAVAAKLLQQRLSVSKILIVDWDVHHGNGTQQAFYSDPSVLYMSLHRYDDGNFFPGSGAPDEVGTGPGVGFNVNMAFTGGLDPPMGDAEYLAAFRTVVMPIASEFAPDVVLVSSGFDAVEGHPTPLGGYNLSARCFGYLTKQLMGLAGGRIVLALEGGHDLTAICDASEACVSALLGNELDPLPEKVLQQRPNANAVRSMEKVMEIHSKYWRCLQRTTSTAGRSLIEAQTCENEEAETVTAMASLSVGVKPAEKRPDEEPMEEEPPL
T3 sequence (Q13547 whole entry): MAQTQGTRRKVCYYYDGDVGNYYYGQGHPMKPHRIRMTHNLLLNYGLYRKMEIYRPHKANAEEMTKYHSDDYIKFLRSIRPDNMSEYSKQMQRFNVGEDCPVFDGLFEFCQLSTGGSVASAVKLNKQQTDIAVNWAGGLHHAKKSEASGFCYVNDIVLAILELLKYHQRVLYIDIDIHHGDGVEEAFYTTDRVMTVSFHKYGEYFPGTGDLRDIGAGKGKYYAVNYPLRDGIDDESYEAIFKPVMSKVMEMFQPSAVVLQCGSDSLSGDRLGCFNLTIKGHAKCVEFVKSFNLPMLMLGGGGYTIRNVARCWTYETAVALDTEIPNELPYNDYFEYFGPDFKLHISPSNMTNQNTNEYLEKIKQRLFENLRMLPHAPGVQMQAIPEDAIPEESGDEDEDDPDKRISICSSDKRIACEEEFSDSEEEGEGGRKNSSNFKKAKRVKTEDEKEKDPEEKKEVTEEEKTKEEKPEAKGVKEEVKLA

In the case of `CC[C@H](C)[C@@H]1NC(=O)[C@@H](Cc2ccc(OC)cc2)NC(=O)[C@H](CCCCCC(=O)C(F)(F)F)NC(=O)[C@H]2CCCN2C1=O` [Tfk, cyclo(-L-Tfm-D-Tyr(Me)-L-Ile-D-Pro-)], the pEC50 [1] was 5.51, the “tubulin acetylation (tubulin deacetylase inhibition in the cells)” value (tubulin deacetylase) was “induced high level of tubulin acetylation” and the IC50 (mouse HDAC6) was 1.44 µM. The pIC50 [2] was 7.06 and the IC50 [3] was 8.8 nM.
In the case of `CC[C@H](C)[C@@H]1NC(=O)[C@@H](Cc2ccc(OC)cc2)NC(=O)[C@H](CCCCSCC(=O)C(F)(F)F)NC(=O)[C@H]2CCCN2C1=O` [Mtfk, cyclo(-L-Am6(Tfacet)-D-Tyr(Me)-L-Ile-D-Pro-)], the pEC50 [1] was 5.18, the IC50 (mouse HDAC6) was 0.95 µM and the pIC50 [2] was 6.33. The IC50 [3] was 52.5 nM.
`CC(/C=C/C(=O)NO)=C\[C@@H](C)C(=O)c1ccc(N(C)C)cc1` [TSA, Trichostatin A, reference compound] gave a pEC50 [1] of 6.11, an IC50 [2] of 151 nM and an IC50 [3] of 12.3 nM.
In the case of `CC[C@H](C)[C@@H]1NC(=O)[C@@H](Cc2ccc(OC)cc2)NC(=O)[C@H](CCCCCC(=O)C(F)(F)C(F)(F)F)NC(=O)[C@H]2CCCN2C1=O` [Pfek, cyclo(-L-Pfe-D-Tyr(Me)-L-Ile-D-Pro-)], the pEC50 [1] was less than 4.00, the pIC50 (mouse HDAC6) was 5.24 and the IC50 [2] was 13400 nM. The IC50 [3] was 616 nM and the pIC50 (human HDAC4) was 5.91.
Compound `CC[C@H](C)[C@@H]1NC(=O)[C@@H](Cc2ccc(OC)cc2)NC(=O)[C@H](Cc2ccc(N)cc2)NC(=O)[C@H]2CCCN2C1=O` [Aph, cyclo(-L-Aph-D-Tyr(Me)-L-Ile-D-Pro-)] (cyclo(I[dP][Phe(4-NH2)][dY](Me))) has a pEC50 [1] of less than 4.00, an IC50 (mouse HDAC6) greater than 500 µM and an IC50 (human HDAC1) greater than 500 µM. For the same compound, the pIC50 [2] was less than 4.30, the IC50 [3] was greater than 50000 nM and the IC50 (human HDAC4; Table 1, 37° C., 30 minutes, read-out: IC50 (μM) HDAC4) was greater than 500 µM.
With `CC[C@H](C)[C@@H]1NC(=O)[C@@H](Cc2ccc(OC)cc2)NC(=O)[C@H](CCCCOn2nnc3cccnc32)NC(=O)[C@H]2CCCN2C1=O` [cyclo(-L-Ab6-D-Tyr(Me)-L-Ile-D-Pro-)] the ring closure, isolated yield ([4]; from H-dTyr(Me)-Ile-dPro-Ab6-OH, HBTU/HOBt/DIEA, 5.4 mM, 2 steps) was 32%.
For `CC[C@H](C)[C@@H]1NC(=O)[C@@H](Cc2ccc(OC)cc2)NC(=O)[C@H](CCCCCN(C=O)OCc2ccccc2)NC(=O)[C@H]2CCCN2C1=O` [cyclo(-L-Hly(For, OBzl)-D-Tyr(Me)-L-Ile-D-Pro-)], the ring closure, isolated yield ([4]; from H-dTyr(Me)-Ile-dPro-Hly(For,OBzl)-OH, HATU/DIEA, 0.96 mM, 25.0 °C) was 66%.
With `CC[C@H](C)[C@@H]1NC(=O)[C@@H](Cc2ccc(OC)cc2)NC(=O)[C@H](CCCCCN(C=O)OCc2ccccc2)NC(=O)[C@H]2CCCCN2C1=O` [cyclo(-L-Hly(For, OBzl)-D-Tyr(Me)-L-Ile-D-Pip-)] the ring closure, isolated yield ([4]; from H-dTyr(Me)-Ile-dPip-Hly(For,OBzl)-OH?, HATU/DIEA, 0.39 mM, 25.0 °C) was 28%.
